US20090305239A1, “Methods and compositions for determing a level of biologically active serum paraoxonase” (priority 2005, published 2009)
Where “and” joins values, the source holds several entries; their conditions need not be identical. Equal entries are not always repeated.

How the values were obtained:
PON1 in human sera [1] = molecular target: T1, PON1 in human sera (Homo sapiens, UniProt P27169); conditions: samples #1 and #2
Method: (§1) Hydrolysis of phenyl acetate was monitored directly by absorbance at 270 nm (FIG. 2b).
(§2) The reaction mixtures of phenyl acetate contained 1 mM phenyl acetate from 500 mM stock in methanol. All the reaction mixtures contained final 1% DMSO. […] The serum was incubated with the inhibitors for 5-10 minutes before the initiation of the reaction.
(§3) In parallel, we the PON1 activity was determined with phenyl acetate, which is routinely used as a probe for PON1 levels in the serum.

PON1 in human sera [2] = molecular target: T1, PON1 in human sera; test: Serum lactonase activity with TBBL (DTNB, 412 nm), with and without inhibitors; format: biochemical
Method: as §1, §2, §3

PON1 in human sera [3] = molecular target: T1, PON1 in human sera; test: biochemical; conditions: read-out: Serum activity with 1 mM phenyl acetate, 100 μM HQ (% of uninhibited activity), human serum 1:400 pre-incubated with 100 μM HQ; samples #1 and #2
Method: as §1, §2, §3

[4] = tested on: E. coli cells expressing recombinant PON1 (rePON1); test: Detection of PON1 lactonase activity in living cells by FACS in w/o/w emulsions with TBBL and CPM; format: cell-based; conditions: TBBL with thiol-detecting dye CPM, emission at 530 nm, single E. coli cells in w/o/w emulsion
Source text: Shown are representative histograms of the fluorescent emission at 530 nm (the thiol-CPM adduct) for single cells expressing GFP and PON1 (white), and control cells with GFP only (grey).
PON1 activity was also detected in living cells, using FACS (fluorescence-activated cell sorter) and emulsion droplets that compartmentalize the cells together with the products of the enzymatic activity^[15, 16]. […] The w/o emulsion was then re-emulsified, to generate the w/o/w double emulsion with a continuous water phase that is amenable to FACS^[15]. The FACS triggering threshold was set for the emission of GFP, and an appropriate gate was chosen corresponding to the level of emission of single E. coli cells^[16]. […] A clear difference (>20-fold in mean fluorescence) was observed relative to cells bearing no rePON1

[5] = tested on: recombinant PON1 variant rePON1-G2E6; conditions: substrate hydrolysis by rePON1; 50 mM Tris pH 8.0, 1 mM CaCl2, 50 mM NaCl; DTNB detection
Method: The kinetic parameters of enzymatic hydrolysis of the three TXBLs by PON1 were determined by detecting the released thiol moiety with DTNB.
Kinetics were performed with recombinant PON1 variant rePON1-G2E6 expressed in fusion with a thioredoxin and 6×His tag, and purified as described^[19].
Kinetic measurements with DTNB—The rates of enzymatic hydrolyses of the thioalkyl-substituted lactones were determined in 50 mM Tris pH 8.0 with 1 mM CaCl2 and 50 mM NaCl (activity buffer). The enzyme stocks were kept in activity buffer containing 0.1% tergitol, and the enzyme concentration used was 8.375×10^−9 M. Stocks of 100-400 mM of substrates were prepared in acetonitrile and diluted with the reaction buffer immediately before initializing the reaction. […] The substrate concentrations were varied in the range of 0.3×KM up to (2-3)×KM. The co-solvent percentage was kept at 1% in all reactions. The DTNB dye (Ellman's reagent, 5′,5-dithio bis(2-nitrobenzoic acid) was used from 100 mM stock in DMSO, at a final concentration of 0.5 mM. An ε412 nm=7000 OD/M was used to calculate the activity. Product formation was monitored spectrophotometrically at 412 nm in 200 μl reaction volumes, using 96-well plates, on a microtiter plate reader (PowerWave HT™ Microplate Scanning Spectrophotometer; optical length ˜0.5 cm). Initial velocities (v0) were determined at eight different concentrations for each substrate. v0 values were corrected for the background rate of spontaneous hydrolysis in the absence of enzyme. Kinetic parameters (kcat, KM, kcat/KM) were obtained by fitting the data to the Michaelis-Menten equation [v0=kcat[E]0[S]0/([S]0+KM)], using the program Kaleidagraph 5.0.

PON3 = test: Lactonase activity of PON3 in purified enzyme samples and crude cell lysates; format: biochemical; conditions: data not shown
rePON1 = rePON1 with 5-alkyl butyrolactones, taken from Ref. 4; cited from earlier work
[6] = human serum 1:400 pre-incubated with 5 mM EDTA

T1 sequence (P27169 whole entry): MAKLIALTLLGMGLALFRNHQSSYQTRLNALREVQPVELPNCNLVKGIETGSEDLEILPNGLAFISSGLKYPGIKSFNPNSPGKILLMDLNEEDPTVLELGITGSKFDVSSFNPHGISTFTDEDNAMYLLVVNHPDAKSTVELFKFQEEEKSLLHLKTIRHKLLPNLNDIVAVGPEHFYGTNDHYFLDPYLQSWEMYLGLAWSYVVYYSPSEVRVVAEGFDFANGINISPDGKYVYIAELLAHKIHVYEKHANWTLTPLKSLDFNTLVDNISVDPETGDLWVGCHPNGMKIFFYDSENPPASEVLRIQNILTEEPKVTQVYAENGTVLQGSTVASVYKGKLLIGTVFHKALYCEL

O=C(O)CN(CCN(CC(=O)O)CC(=O)O)CC(=O)O [EDTA]
Serum activity with 1 mM phenyl acetate, 5 mM EDTA (PON1 in human sera [1]; [6]): ~0 μM product/min
Serum activity with 1 mM phenyl acetate, 5 mM EDTA (% of uninhibited activity) (PON1 in human sera [1]; [6]): (0%)
Serum activity with 0.5 mM TBBL, 5 mM EDTA (PON1 in human sera [2]; human serum 1:400 pre-incubated with 5 mM EDTA, samples #1 and #2): 0.04 ± 0.01 μM product/min and 0.06 ± 0.01 μM product/min
inhibition rates by EDTA (PON1 in human sera [2]; serum lactonase (TBBL) and aryl esterase (phenyl acetate) activities, 5 mM EDTA): > 99%

Oc1ccc2ccccc2n1 [HQ, 2-hydroxyquinoline]
Serum activity with 1 mM phenyl acetate, 100 μM HQ (PON1 in human sera [1]; human serum 1:400 pre-incubated with 100 μM HQ): 5.9 ± 0.4 μM product/min and 3.9 ± 0.3 μM product/min
activity at 100 µM (PON1 in human sera [3]): 4.9%
Serum activity with 0.5 mM TBBL, 100 μM HQ (PON1 in human sera [2]; human serum 1:400 pre-incubated with 100 μM HQ, samples #1 and #2): 2.09 ± 0.04 μM product/min and 1.80 ± 0.01 μM product/min
activity at 100 µM (PON1 in human sera [2]; read-out: Serum activity with 0.5 mM TBBL, 100 μM HQ (% of uninhibited activity), human serum 1:400 pre-incubated with 100 μM HQ, samples #1 and #2): 8.6%

CCCCSC1CCC(=O)O1 (stereo not drawn) [TBBL, 5-butylsulfanyl-dihydro-furan-2-one]
difference in mean fluorescence relative to cells bearing no rePON1 [4]: > 20 fold
Km [5]: 270 ± 40 µM
kcat [5]: 116 ± 4 s⁻¹
lactonase activity of PON3 assayed with the substrate (PON3): could be assayed

CCSC1CCC(=O)O1 (stereo not drawn) [TEBL, 5-ethylsulfanyl-dihydro-furan-2-one]
Km [5]: 360 ± 50 µM
kcat [5]: 161 ± 10 s⁻¹
lactonase activity of PON3 assayed with the substrate (PON3): could be assayed

CCCCCCSC1CCC(=O)O1 (stereo not drawn) [THBL, 5-hexylsulfanyl-dihydro-furan-2-one]
Km [5]: 350 ± 30 µM
kcat [5]: 52.4 ± 2.6 s⁻¹

CCCCCC1CCC(=O)O1 (stereo not drawn) [γ-nonanoic lactone]
Km (rePON1): 390 ± 30 µM
kcat (rePON1): 31 ± 2 s⁻¹

CCCCCCCC1CCC(=O)O1 (stereo not drawn) [γ-undecanoic lactone]
Km (rePON1): 600 ± 70 µM
kcat (rePON1): 62 ± 2 s⁻¹
